In publication PMC8260592 (Scientific Reports, 2021):
In brackets after ≈: the same amount, converted by molar mass. Entries after “also recorded” stand apart in the source; their conditions may differ. Where two headings read alike, the source gives them in different places.

Legend:
[1] = biological target: AChE (Type VI-S from Electrophorus electricus) (Electrophorus electricus, UniProt O42275); assay: biochemical; details: for SI: IC50 for BChE divided by IC50 for AChE; for remaining activity at 10 µM: read-out: Residual activity at 10 µM (%) AChE; for inhibition at 10 µM: read-out: Inhibition of AChE
Method: (§1) AChE and BChE inhibitory activities were measured after preincubating enzymes with inhibitors for 15 min before adding substrates (ATCI and BTCI, respectively) and DTNB. AChE activities were assayed as previously described, with slight modification[21],[22]. […] MAO-A and MAO-B activities were determined using a continuous spectrophotometric method, as described previously[23],[24]. […] Reaction rates are expressed as changes in absorbance per min. […]

[2] = biological target: T1, BChE (equine serum) (Equus caballus, UniProt P81908); assay: biochemical; details: for remaining activity at 10 µM: read-out: Residual activity at 10 µM (%) BChE
T1 construct: BChE (equine serum); purchased Sigma-Aldrich; host or cells: equine serum
Method: as §1

[3] = biological target: T2, MAO-B (Homo sapiens, UniProt P27338); assay: biochemical; details: for IC50: read-out: IC50 (µM) MAO-B; for remaining activity at 10 µM: read-out: Residual activity at 10 µM (%) MAO-B
T2 construct: purchased Sigma-Aldrich
T2 sequence (P27338 1-520): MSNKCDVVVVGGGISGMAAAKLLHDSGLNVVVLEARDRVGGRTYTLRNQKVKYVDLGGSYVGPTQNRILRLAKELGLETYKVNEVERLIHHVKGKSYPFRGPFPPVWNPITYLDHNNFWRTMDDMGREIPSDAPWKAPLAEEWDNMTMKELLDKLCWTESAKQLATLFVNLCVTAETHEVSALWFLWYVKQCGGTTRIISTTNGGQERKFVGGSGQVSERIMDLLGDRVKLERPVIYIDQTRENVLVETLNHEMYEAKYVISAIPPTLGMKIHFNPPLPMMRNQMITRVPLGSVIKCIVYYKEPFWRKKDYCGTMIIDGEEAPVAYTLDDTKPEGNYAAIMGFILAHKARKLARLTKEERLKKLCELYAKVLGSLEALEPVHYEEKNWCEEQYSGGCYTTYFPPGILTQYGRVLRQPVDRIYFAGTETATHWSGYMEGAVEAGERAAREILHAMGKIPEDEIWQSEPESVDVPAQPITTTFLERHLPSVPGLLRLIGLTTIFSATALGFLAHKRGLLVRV
Method: (§2) AChE and BChE inhibitory activities were measured after preincubating enzymes with inhibitors for 15 min before adding substrates (ATCI and BTCI, respectively) and DTNB. AChE activities were assayed as previously described, with slight modification[21],[22]. […] MAO-A and MAO-B activities were determined using a continuous spectrophotometric method, as described previously[23],[24]. […] Reaction rates are expressed as changes in absorbance per min.
(§3) Inhibitory patterns and Ki values were determined using Lineweaver–Burk (LB) plots and secondary plots of LB slopes.

[4] = biological target: T3, Recombinant human MAO-A (Homo sapiens, UniProt P21397); assay: biochemical; details: for IC50: read-out: IC50 (µM) MAO-A; for remaining activity at 10 µM: read-out: Residual activity at 10 µM (%) MAO-A
T3 construct: purchased Sigma-Aldrich
T3 sequence (P21397 1-527): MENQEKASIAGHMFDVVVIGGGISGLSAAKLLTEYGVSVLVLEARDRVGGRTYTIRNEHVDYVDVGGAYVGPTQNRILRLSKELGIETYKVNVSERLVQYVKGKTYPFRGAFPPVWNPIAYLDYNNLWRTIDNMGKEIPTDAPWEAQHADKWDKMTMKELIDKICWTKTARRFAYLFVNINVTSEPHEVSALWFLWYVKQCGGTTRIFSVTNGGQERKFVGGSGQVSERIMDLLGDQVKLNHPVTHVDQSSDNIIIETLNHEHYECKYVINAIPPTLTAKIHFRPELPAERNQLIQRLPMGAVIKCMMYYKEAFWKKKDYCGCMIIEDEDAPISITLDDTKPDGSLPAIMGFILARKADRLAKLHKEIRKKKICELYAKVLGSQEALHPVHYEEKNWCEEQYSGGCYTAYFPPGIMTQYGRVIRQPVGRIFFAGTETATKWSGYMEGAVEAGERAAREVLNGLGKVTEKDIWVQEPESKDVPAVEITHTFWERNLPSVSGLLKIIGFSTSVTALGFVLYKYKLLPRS
Method: as §2, §3

[5] = biological target: T4, BACE-1 (Homo sapiens, UniProt P56817); assay: BACE-1 activity detection kit (fluorescence); type: biochemical; details: read-out: Residual activity at 10 µM (%) BACE-1
T4 construct: purchased Sigma-Aldrich

[6] = biological target: T5, AChE (Electrophorus electricus, UniProt O42275); assay: Reversibility of AChE inhibition by dialysis; type: biochemical
Method: (§4) After preincubating three compounds or reference inhibitors with enzymes for 15 min, residual activities of undialyzed (AU) and dialyzed (AD) samples were expressed as percentages of those of non-inhibitor treated controls. Reversibilities were assessed using AU and AD values and compared with those of reference compounds.
(§5) After preincubating the compounds with enzymes for 15 min, the mixtures were dialyzed for 6 h with two buffer changes. Results are the averages of duplicate or triplicate experiments.

[7] = biological target: T2, MAO-B; assay: Reversibility of MAO-B inhibition by dialysis; type: biochemical
Method: as §4, §5

[8] = biological target: T5, AChE; assay: Kinetics of AChE inhibition (Lineweaver-Burk and secondary plots); type: biochemical; details: for Mode of AChE inhibition: LB plots; for Ki: secondary plots of LB slopes, substrate 0.05-1.0 mM, read-out: Ki for AChE
Method: as §3
Substrate concentrations ranged from 0.05 to 1.0 mM. […] Initial reaction rates are expressed as increases in absorbance per min.

[9] = biological target: T2, MAO-B; assay: Kinetics of MAO-B inhibition (Lineweaver-Burk and secondary plots); type: biochemical
Method: as §3

[10] = system: Madin-Darby canine kidney (MDCK) cells; assay: Cytotoxicity test, CCK-8 assay; details: 50 µM, 24 h, CCK-8
Method: (§6) Madin-Darby canine kidney (MDCK) cells and human acute promyelocytic leukemia (HL-60) cells were obtained from the Korean Cell Line Bank (Seoul, Korea). […] Cultures were maintained at 37 °C under 5% CO2, and media were changed every two days.
(§7) Cell viabilities were determined using the CCK-8 assay. Briefly, MDCK cells or HL-60 cells were resuspended at 1 × 10^5 or 3 × 10^5 cells/mL and suspensions (100 µL) were added to wells of a 96-well plate and incubated in 5% CO2 atmosphere at 37 °C for 24 h. After incubation, 100 µL of each medium was treated with compounds at 1, 3, 10, 30, or 50 µM and incubated in 5% CO2 at 37 °C for 24 h. CCK-8 (10 µL/well) was then added to 100 µL aliquots from each cell and incubated 2–4 h. Absorbances were measured at 450 nm using a microplate reader (Versamax, Molecular Devices, San Jose, CA, USA).
(§8) Both cell lines were treated with each compound (at 1, 3, 10, 30, or 50 µM) for 24 h. Culture supernatants were then removed and CCK-8 was added. […] Data are expressed as the means ± SDs of triplicate experiments.

[11] = system: human acute promyelocytic leukemia (HL-60) cells; assay: Cytotoxicity test, CCK-8 assay; details: 50 µM, 24 h, CCK-8
Method: as §6, §7, §8

[12] = Cytotoxicity test, CCK-8 assay
Method: as §6, §7, §8

[13] = system: AChE; details: cited from earlier work

T4 sequence (P56817 46-457): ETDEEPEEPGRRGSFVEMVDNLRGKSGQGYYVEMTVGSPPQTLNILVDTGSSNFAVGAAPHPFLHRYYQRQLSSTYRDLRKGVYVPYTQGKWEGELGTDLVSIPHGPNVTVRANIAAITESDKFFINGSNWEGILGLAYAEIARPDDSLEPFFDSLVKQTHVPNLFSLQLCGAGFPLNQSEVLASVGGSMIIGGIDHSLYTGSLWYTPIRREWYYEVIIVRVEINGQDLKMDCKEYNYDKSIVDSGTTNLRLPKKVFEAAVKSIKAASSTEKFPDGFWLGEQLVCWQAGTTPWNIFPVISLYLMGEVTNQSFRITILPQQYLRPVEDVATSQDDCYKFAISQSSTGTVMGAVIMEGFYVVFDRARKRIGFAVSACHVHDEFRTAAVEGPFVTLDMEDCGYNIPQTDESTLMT
AChE (Type VI-S from Electrophorus electricus), sequence (O42275 24-633): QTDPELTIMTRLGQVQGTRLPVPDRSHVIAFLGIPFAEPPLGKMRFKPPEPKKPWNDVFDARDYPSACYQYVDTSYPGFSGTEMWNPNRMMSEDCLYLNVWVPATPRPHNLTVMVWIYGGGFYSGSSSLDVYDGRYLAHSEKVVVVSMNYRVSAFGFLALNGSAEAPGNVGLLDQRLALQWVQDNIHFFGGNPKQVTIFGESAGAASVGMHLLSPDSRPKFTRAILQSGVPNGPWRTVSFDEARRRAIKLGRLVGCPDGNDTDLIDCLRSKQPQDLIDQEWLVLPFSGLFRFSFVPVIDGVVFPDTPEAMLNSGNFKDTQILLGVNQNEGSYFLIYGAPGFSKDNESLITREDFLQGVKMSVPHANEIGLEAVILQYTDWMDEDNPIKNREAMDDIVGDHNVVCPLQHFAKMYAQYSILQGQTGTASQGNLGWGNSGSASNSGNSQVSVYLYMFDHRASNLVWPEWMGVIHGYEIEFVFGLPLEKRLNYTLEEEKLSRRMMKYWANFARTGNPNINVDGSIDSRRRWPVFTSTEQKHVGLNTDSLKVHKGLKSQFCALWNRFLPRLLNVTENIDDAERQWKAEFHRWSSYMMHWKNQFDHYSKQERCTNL
T5 sequence (O42275 24-633): as above
T1 sequence (P81908 whole entry): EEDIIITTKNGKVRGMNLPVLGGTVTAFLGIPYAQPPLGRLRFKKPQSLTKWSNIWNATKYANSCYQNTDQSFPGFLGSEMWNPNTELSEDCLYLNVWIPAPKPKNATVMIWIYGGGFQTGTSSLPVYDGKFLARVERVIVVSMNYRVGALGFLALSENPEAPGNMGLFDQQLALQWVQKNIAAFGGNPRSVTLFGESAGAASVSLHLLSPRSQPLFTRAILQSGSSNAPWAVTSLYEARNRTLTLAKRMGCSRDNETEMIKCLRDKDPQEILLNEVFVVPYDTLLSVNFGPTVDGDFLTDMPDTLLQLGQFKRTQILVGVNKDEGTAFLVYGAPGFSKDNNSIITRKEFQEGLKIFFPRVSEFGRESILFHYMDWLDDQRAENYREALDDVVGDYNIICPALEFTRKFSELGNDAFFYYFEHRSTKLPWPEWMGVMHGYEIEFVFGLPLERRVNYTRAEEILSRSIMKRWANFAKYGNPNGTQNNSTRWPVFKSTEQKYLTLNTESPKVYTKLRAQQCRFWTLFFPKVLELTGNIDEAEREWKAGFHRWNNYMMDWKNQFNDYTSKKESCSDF

## O=C(OCc1cc(O)c(O[C@@H]2O[C@H](CO)[C@@H](O)[C@H](O)[C@H]2O)c(O)c1)c1cc(O)c(O)c(Oc2c(C(=O)OCc3cc(O)c(O[C@@H]4O[C@H](CO)[C@@H](O)[C@H](O)[C@H]4O)c(O)c3)cc(O)c(O)c2O)c1 [Compound 1, chestanin]
[1]
  IC50: 37 ± 3 µM
  SI: > 1.1
  remaining activity at 10 µM: 72.5 ± 2.1%
[2]
  IC50: > 40 µM
  remaining activity at 10 µM: 96.2 ± 3.9%
[3]
  IC50: > 40 µM
  remaining activity at 10 µM: 67.2 ± 8.1%
[4]
  IC50: > 40 µM
  remaining activity at 10 µM: 91.7 ± 1.6%
[5]
  remaining activity at 10 µM: 78.9 ± 0.3%

## COc1cc2c(=O)oc3c(OC)c(O[C@@H]4O[C@H](CO)[C@@H](O)[C@H](O)[C@H]4O)cc4c(=O)oc(c1OC)c2c34 [Compound 2, 4′-O-(β-D-glucopyranosyl)-3,3′,4-tri-O-methylellagic acid]
[1]
  IC50: 46.4 ± 2.7 µM
  SI: > 0.9
  remaining activity at 10 µM: 70.5 ± 5%
[2]
  IC50: > 40 µM
  remaining activity at 10 µM: 90.8 ± 4.2%
[3]
  IC50: > 40 µM
  remaining activity at 10 µM: 60.9 ± 5.2%
[4]
  IC50: > 40 µM
  remaining activity at 10 µM: 91.3 ± 7.9%
[5]
  remaining activity at 10 µM: 91.9 ± 1%

## COc1cc2c(=O)oc3c(OC)c(O[C@@H]4O[C@@H](C)[C@H](O)[C@@H](O)[C@H]4O)cc4c(=O)oc(c1OC)c2c34 [Compound 3, 4′-O-(α-L-rhamnopyranosyl)-3,3′,4-tri-O-methylellagic acid]
[1]
  IC50: 10.1 ± 0.4 µM
  SI: > 4.0
  inhibition at 10 µM: ~50%
  remaining activity at 10 µM: 55.4 ± 3.4%
[2]
  IC50: > 40 µM
  remaining activity at 10 µM: 83.3 ± 2.1%
[3]; 10 µM
  inhibition at 10 µM: > 50%
[3]
  IC50: 7.27 ± 0.16 µM
  remaining activity at 10 µM: 43.2 ± 3.7%
[4]
  IC50: > 40 µM
  remaining activity at 10 µM: 83 ± 6.3%
[5]
  remaining activity at 10 µM: 99.7 ± 0.4%
[6]
  Reversibility of AChE inhibition: reversibly; also recorded: reversible inhibitors
[7]
  Reversibility of MAO-B inhibition: reversible inhibitors
[8]
  Mode of AChE inhibition: competitively; also recorded: competitive but partly mixed; also recorded: competitive but partially mixed
  Ki: 5.37 ± 0.62 µM
[9]; LB plots
  Mode of MAO-B inhibition: competitive
[9]; secondary plots of LB slopes, substrate 0.0375-0.6 mM, read-out: Ki for MAO-B
  Ki: 2.25 ± 0.01 µM
[10]
  MDCK cell viability: slightly or non-toxic; also recorded: negligible effects; also recorded: non-toxic or slightly toxic
[11]
  HL-60 cell viability: negligible effects; also recorded: non-toxic or slightly toxic

## COc1cc2c(=O)oc3c(OC)c(O)cc4c(=O)oc(c1OC)c2c34 [Compound 4, 3,3′,4-tri-O-methylellagic acid]
[1]
  IC50: 10.7 ± 1 µM
  SI: > 3.7
  inhibition at 10 µM: ~50%
  remaining activity at 10 µM: 53.2%
[2]
  IC50: > 40 µM
  remaining activity at 10 µM: 92.3 ± 2.3%
[3]
  IC50: > 40 µM
  remaining activity at 10 µM: 89.1 ± 4.1%
[4]
  IC50: > 40 µM
  remaining activity at 10 µM: 83.1 ± 4.7%
[5]
  remaining activity at 10 µM: 90.1 ± 0.4%
[6]
  Reversibility of AChE inhibition: reversibly; also recorded: reversible inhibitors
[8]
  Mode of AChE inhibition: competitively; also recorded: competitive but partly mixed; also recorded: competitive but partially mixed
  Ki: 3.74 ± 0.26 µM
[12]; dog, MDCK cells
  viability at 24 h, 50 µM: 67.9%
[12]; human, HL-60 cells
  viability at 24 h, 50 µM: 84.6%
[10]
  MDCK cell viability: slightly or non-toxic; also recorded: non-toxic or slightly toxic
[11]
  HL-60 cell viability: non-toxic or slightly toxic

## COc1cc(/C=C/C(=O)CC(=O)/C=C/c2ccc(O)c(OC)c2)ccc1O [curcumin]
[13]; ref 51
  IC50: 23.5 µM

## O=C(O[C@@H]1Cc2c(O)cc(O)cc2O[C@@H]1c1cc(O)c(O)c(O)c1)c1cc(O)c(O)c(O)c1 [epigallocatechin gallate]
[13]; ref 52
  IC50: 14.8 µM
